From BindingDB's records for doi:10.1016/j.chembiol.2013.08.005 (University of California San Francisco, 2013)

Legend:
[1] = target: T1, Urea transporter 1 (Rattus norvegicus, UniProt P97689); assay: UT-B Inhibition Assay
T1 sequence (P97689 whole entry): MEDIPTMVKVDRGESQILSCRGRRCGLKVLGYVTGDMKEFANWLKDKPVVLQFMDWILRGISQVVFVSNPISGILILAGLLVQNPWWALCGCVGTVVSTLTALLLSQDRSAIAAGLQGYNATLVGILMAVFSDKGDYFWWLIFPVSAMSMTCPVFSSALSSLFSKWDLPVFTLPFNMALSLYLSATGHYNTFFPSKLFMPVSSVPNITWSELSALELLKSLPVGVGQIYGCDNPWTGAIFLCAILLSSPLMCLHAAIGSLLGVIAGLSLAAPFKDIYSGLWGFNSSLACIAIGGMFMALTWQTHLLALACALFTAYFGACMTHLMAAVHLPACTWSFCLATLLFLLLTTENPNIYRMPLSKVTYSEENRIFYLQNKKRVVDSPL
Method: Erythrocyte suspension (100 µL) was added to each well of a 96-well microplate to which test compounds were added. After 15 min incubation, 20 µL of the erythrocyte suspension was added to each well of a 96-well plate containing 180 µL PBS containing 1% DMSO, followed by vigorous mixing. The absorbance was measured at 710 nm.

[2] = target: T2, Urea transporter 2 (Rattus norvegicus, UniProt Q62668); assay: UT-A1 Inhibition Assay
T2 sequence (Q62668 whole entry): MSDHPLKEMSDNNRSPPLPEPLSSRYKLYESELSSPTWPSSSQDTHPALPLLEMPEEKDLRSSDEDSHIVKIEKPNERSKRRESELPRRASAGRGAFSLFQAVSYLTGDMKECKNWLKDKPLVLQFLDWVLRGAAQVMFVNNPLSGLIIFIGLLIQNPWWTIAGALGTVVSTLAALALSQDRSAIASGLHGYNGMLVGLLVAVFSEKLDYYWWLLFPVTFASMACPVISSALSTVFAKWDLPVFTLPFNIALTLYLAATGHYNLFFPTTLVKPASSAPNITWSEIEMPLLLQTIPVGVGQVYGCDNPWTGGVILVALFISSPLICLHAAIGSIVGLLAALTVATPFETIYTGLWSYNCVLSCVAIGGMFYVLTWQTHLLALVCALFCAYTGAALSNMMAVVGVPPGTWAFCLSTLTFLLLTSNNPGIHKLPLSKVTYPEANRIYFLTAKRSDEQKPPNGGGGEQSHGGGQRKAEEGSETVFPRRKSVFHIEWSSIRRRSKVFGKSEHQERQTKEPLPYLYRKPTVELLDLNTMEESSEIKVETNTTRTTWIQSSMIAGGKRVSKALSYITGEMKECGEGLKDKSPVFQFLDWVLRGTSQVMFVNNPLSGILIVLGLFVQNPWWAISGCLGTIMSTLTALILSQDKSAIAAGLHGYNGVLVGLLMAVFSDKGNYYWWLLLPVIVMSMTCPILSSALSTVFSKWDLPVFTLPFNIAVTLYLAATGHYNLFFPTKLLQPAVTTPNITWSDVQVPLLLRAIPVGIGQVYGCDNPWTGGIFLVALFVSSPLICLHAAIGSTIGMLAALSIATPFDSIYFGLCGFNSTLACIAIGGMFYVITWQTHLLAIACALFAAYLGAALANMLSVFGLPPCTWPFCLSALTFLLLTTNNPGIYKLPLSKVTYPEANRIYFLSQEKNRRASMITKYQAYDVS
Method: The urea concentration dependence of UT-A1 inhibition was studied from inhibitor concentration response data (0.3 - 60 µM) using different of urea gradients (200 - 1,600 mM). The kinetics of UT-A1 inhibition was measured by adding inhibitors (3 µM) at different times prior to assay.

| SMILES | IC50 [1] | IC50 [2] |
| --- | --- | --- |
| Cc1ccc(C)c(S(=O)(=O)c2nnn3c2nc(NC(C)C)c2sccc23)c1 | 15 µM | 3.8 µM |
| CSc1nc(Nc2ccc(Nc3ccccc3)cc2)nc(SC)n1 [1‐N‐[bis(methylsulfanyl)‐1,3,5‐triazin‐2‐yl]‐4‐N‐ phenylbenzene‐1,4‐diamine] | > 50 µM | 45 µM |
| CC(=O)OCCOc1ccccc1/C=C1/SC(=N)NC1=O [2‐(2‐{[(5E)‐2‐imino‐4‐oxo‐1,3‐thiazolidin‐5‐ ylidene]methyl}phenoxy)ethyl acetate] | 4.8 µM | 3.7 µM |
| COc1cccc(Nc2nc(Nc3ccc(C)cc3)nc(Sc3ccc(C)cc3)n2)c1 [2‐N‐(3‐methoxyphenyl)‐4‐N‐(4‐methylphenyl)‐6‐[(4‐ methylphenyl)sulfanyl]‐1,3,5‐triazine‐2,4‐diamine] | 42 µM | > 50 µM |
| COc1cccc(CNC(=O)c2ccc3cccc(O)c3n2)c1 [8‐hydroxy‐N‐[(3‐methoxyphenyl)methyl]quinoline‐2‐carboxamide] | > 50 µM | – |
| COc1ccc(Nc2cc(C(=O)N3CCSCC3)nc3c(OC)cccc23)cc1 [8‐methoxy‐N‐(4‐methoxyphenyl)‐2‐(thiomorpholine‐4‐ carbonyl)quinolin‐4‐amine] | 6.2 µM | 3.5 µM |
| COc1cccc2c(Nc3cccc(SC)c3)cc(C(=O)N3CCCCC3)nc12 [8‐methoxy‐N‐[3‐(methylsulfanyl)phenyl]‐2‐ (piperidine‐1‐carbonyl)quinolin‐4‐amine] | 20 µM | 3.8 µM |
| COc1cc(/C=C2/SC(=N)NC2=O)ccc1O [(5E)‐5‐[(4‐hydroxy‐3‐methoxyphenyl)methylidene]‐2‐ imino‐1,3‐thiazolidin‐4‐one] | 6.2 µM | 25 µM |
| COc1ccc(Nc2cc(C(=O)N3CCSCC3)nc3c(OC)cccc23)cc1Cl [N‐(3‐chloro‐4‐methoxyphenyl)‐8‐methoxy‐2‐ (thiomorpholine‐4‐carbonyl)quinolin‐4‐amine] | 27 µM | 19 µM |
| COc1cccc2c(Nc3ccc(C)c(Cl)c3)cc(C(=O)N3CCCCC3)nc12 [N‐(3‐chloro‐4‐methylphenyl)‐8‐methoxy‐2‐ (piperidine‐1‐carbonyl)quinolin‐4‐amine] | > 50 µM | 24 µM |
| COc1cccc2c(Nc3ccc(C)c(F)c3)cc(C(=O)N3CCCCC3)nc12 [N‐(3‐fluoro‐4‐methylphenyl)‐8‐methoxy‐2‐ (piperidine‐1‐carbonyl)quinolin‐4‐amine] | > 50 µM | 25 µM |
| CCOc1ccc(Nc2cc(C(=O)N3CCSCC3)nc3c(OC)cccc23)cc1 [N‐(4‐ethoxyphenyl)‐8‐methoxy‐2‐(thiomorpholine‐4‐ carbonyl)quinolin‐4‐amine] | 34 µM | 24 µM |

Other lines, results leading:

| IC50 [1] | IC50 [2] | SMILES |
| --- | --- | --- |
| 28 µM | > 50 µM | CCc1ccc(S(=O)(=O)c2nnn3c2nc(NCCCOC)c2sccc23)cc1 |
| 2.8 µM | > 50 µM | O=S(=O)(c1ccc(Br)cc1)c1nnn2c1nc(N=S1C=CC=C1)c1sccc12 [10‐(4‐bromobenzenesulfonyl)‐N‐[(1Z)‐1λ⁴‐thiophen‐1‐ ylidene]‐5‐thia‐1,8,11,12‐ tetraazatricyclo[7.3.0.0 ,⁶]dodeca‐2(6),3,7,9,11‐ pentaen‐7‐amine] |
| 43 µM | 7 µM | [H]/N=C1/NC(=O)/C(=C\c2cccc(OC)c2OC)S1 [(5E)‐5‐[(2,3‐dimethoxyphenyl)methylidene]‐2‐imino‐1,3‐thiazolidin‐4‐one] |
| 6.3 µM | 4.6 µM | COc1cccc(/C=C2/SC(=N)NC2=O)c1O [(5E)‐5‐[(2‐hydroxy‐3‐methoxyphenyl)methylidene]‐2‐ imino‐1,3‐thiazolidin‐4‐one] |
| 16 µM | 3.3 µM | CCOc1ccc(Nc2cc(C(=O)N3CCCCC3)nc3c(OC)cccc23)cc1 [N‐(4‐ethoxyphenyl)‐8‐methoxy‐2‐(piperidine‐1‐ carbonyl)quinolin‐4‐amine] |
| 35 µM | > 50 µM | CNc1nc2c(S(=O)(=O)c3ccccc3)nnn2c2ccsc12 [UT-A1 inhibitor D2] |
